Like-named read-outs stand apart in the source and are kept apart here.
Key:
HCT-116 = assay: Antiproliferative CCK-8 assay, HCT-116; type: cell-based; details: Homo sapiens; HCT-116, CCK-8 assay, means ± SD; read-out: GC50 (the source's name)
Source text: (§1) Compounds12, 13 and 30 were selected for further cell activity assessments based on the enzymatic activity assessment results. molm-13 and MV4-11(acute myeloid lineage leukaemia cells), MGC-803 (gastric cancer cell), MDA-MB-231(breast cancer cell), A375 (melanoma cell), A549 (lung cancer cell), HCT-116, SW-480 and HT-29 (colorectal cancer cells) were selected to evaluate antitumor activity in vitro, GES-1 (gastric mucosal epithelial cell) was selected to evaluate toxicity in vitro.
(§2) CO2 atmosphere incubator for 24 h. Then, medium with compound at the concentrations of 100, 20, 4, 0.8, 0.016 μM was added into each well for another 48 h and incubated with CCK-8 (10 μL) for 2 h at 37 °C. The absorbance value at 450 nm was measured by the microplate reader (PerkinElmer Envision). […]

MGC-803 = assay: Antiproliferative CCK-8 assay, MGC-803; type: cell-based; details: Homo sapiens; MGC-803, CCK-8 assay, means ± SD; read-out: GC50 (the source's name)
Source text: as §1, §2

HT-29 = assay: Antiproliferative CCK-8 assay, HT-29; type: cell-based; details: Homo sapiens; HT-29, CCK-8 assay, means ± SD; read-out: GC50 (the source's name)
Source text: as §1, §2

SW480 = assay: Antiproliferative CCK-8 assay, SW480; type: cell-based; details: Homo sapiens; SW480, CCK-8 assay, means ± SD; read-out: GC50 (the source's name)
Source text: as §1, §2

A549 = assay: Antiproliferative CCK-8 assay, A549; type: cell-based; details: Homo sapiens; A549, CCK-8 assay, means ± SD; read-out: GC50 (the source's name)
Source text: as §1, §2

A375 = assay: Antiproliferative CCK-8 assay, A375; type: cell-based; details: Homo sapiens, A-375; A375, CCK-8 assay, means ± SD; read-out: GC50 (the source's name)
Source text: as §1, §2

GES-1 = assay: In vitro toxicity CCK-8 assay, GES-1; type: cell-based; details: Homo sapiens, GES1, GES-1 gastric mucosal epithelial cell, read-out: GC50 (the source's name)
Source text: as §1, §2

MDA-MB-231 = assay: Antiproliferative CCK-8 assay, MDA-MB-231; type: cell-based; details: Homo sapiens; MDA-MB-231, CCK-8 assay, means ± SD; read-out: GC50 (the source's name)
Source text: as §1, §2

MV4-11 = assay: Antiproliferative CCK-8 assay, MV4-11; type: cell-based; details: Homo sapiens; MV4-11, CCK-8 assay, means ± SD; read-out: GC50 (the source's name)
Source text: as §1, §2

molm-13 = assay: Antiproliferative CCK-8 assay, molm-13; type: cell-based; details: Homo sapiens; molm-13, CCK-8 assay, means ± SD; read-out: GC50 (the source's name)
Source text: as §1, §2

CDK8 = CDK8 (Homo sapiens, UniProt P49336); assay: CDK8 enzyme activity assay (ADP-Glo Kinase Assay); type: biochemical; details: means ± SD; for inhibition at 0.2 µM: CDK8, 200 nM, two experiments, read-out: Inhibition rate @ 200 nM (%); for IC50: three experiments
CDK8, sequence (P49336 whole entry): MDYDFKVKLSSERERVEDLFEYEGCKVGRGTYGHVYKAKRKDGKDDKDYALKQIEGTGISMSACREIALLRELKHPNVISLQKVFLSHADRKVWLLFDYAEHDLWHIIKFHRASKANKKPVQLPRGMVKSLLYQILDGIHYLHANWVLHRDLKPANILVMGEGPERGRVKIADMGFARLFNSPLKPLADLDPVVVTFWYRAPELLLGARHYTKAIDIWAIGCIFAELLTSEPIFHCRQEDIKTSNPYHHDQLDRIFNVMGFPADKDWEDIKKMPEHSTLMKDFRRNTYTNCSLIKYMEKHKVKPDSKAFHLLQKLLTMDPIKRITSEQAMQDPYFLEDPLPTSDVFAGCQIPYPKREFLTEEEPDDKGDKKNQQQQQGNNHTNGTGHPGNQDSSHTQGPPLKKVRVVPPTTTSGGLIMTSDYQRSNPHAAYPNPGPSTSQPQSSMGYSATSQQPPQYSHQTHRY
CDK8, sequence (P24863 whole entry partner): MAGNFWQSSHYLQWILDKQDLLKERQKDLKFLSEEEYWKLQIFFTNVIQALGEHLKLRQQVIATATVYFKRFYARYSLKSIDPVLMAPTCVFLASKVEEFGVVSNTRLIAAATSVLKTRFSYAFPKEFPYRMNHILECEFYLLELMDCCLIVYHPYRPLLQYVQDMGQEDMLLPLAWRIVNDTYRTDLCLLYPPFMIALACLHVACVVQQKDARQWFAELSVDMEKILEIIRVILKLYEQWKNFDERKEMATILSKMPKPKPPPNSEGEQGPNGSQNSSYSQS
Experimental: Some of them with high inhibition rates were further measured for their IC50 values. Compound SEL-120 34 A was selected as a positive control. [table] [table] page 14: CO2 atmosphere incubator for 24 h. Then, medium with compound at the concentrations of 100, 20, 4, 0.8, 0.016 μM was added into each well for another 48 h and incubated with CCK-8 (10 μL) for 2 h at 37 °C. The absorbance value at 450 nm was measured by the microplate reader (PerkinElmer Envision). 1.4 Kinase Assay The kinase inhibition was detected by ADP-Glo™ Kinase Assay (Promega) using a black 384-well plate. The active CDK8 kinase was diluted in mixture (5 ng enzyme, 0.5 μg substrate, 50 μM DTT, 1 μL reaction buffer and added ddH2O to 3 μL each well) and the final ATP concentrations of was 50 μM. After incubation at room temperature, ADP-Glo™ solution and kinase detection reagent was added. The data was collected by the microplate reader. 1.5 Cellular thermal shift assay HCT-116 cells were cultured in cell culture dishes and treated with 5 μM compound 12 for 4 h. HCT-116 cells were collected, washed by PBS and cell suspensions were divided into 12 PCR tubes equally. Then,11 tubes were heated at 37, […] After that, cells were broken by ultr asonic treatment and centrifuged at 12000 rpm for 20 min. The supernatant was analyzed by western blot. 1.6 Biotin-pulldown assay After co-treated with 2 μM biotinylated compound and compound 12 for 12 h, HCT-116 cells were lysed with NP-40 containing PMSF and centrifuged at 14000 r for 30 min at 4 °C. Then, 40 μL supernatant was used as the input by adding 10 μL 5×SDS loading buffer, and the remains were mixed with Streptavidin Agarose (Novex, Carlsbad, CA, USA). After 6 h incuba tion at 4 °C, the beads were washed three times using lysis buffer and resuspended in 2× SDS loading buffer. HEK -293T cells overexpressed flag -tagged CDK8 were treated using above method. The samples were analyzed by western blot.

[1] = Caco-2 permeability determination; type: in vitro ADME; details: human; for Papp A→B: Caco-2, A→B; for Papp B→A: Caco-2, B→A
[2] = Caco-2, Caco-2, B→A, read-out: Recovery B→A
[3] = Caco-2, Caco-2, A→B, read-out: Recovery A→B

SMILES | inhibition at 0.2 µM (CDK8) [%] | IC50 (CDK8) [nM] | further results
Cc1c(Br)c(Br)c2c3c1nc(N1CCNCC1)n3CCC2 [SEL-120-34A, reference compound] | 82.5 ± 5.8 | 37.2 ± 2.5 | IC50 (HCT-116): 11300 ± 1900 nM; IC50 (MGC-803): 16300 ± 1860 nM; IC50 (HT-29): 33800 ± 1400 nM; IC50 (SW480): 17700 ± 2100 nM; IC50 (A549): 12100 ± 370 nM; IC50 (A375): 5900 ± 1430 nM; IC50 (GES-1): 55300 ± 3200 nM; IC50 (MDA-MB-231): 9600 ± 810 nM; IC50 (MV4-11): 7 ± 1 nM; IC50 (molm-13): 20 ± 10 nM
NC(=O)c1cccc(-c2cnc3[nH]cc(Cl)c3c2)c1 [Compound 11] | 51.8 ± 4.3 | – | –
NC(=O)c1cccc(-c2cnc3[nH]ccc3n2)c1 [Compound 1] | 63 ± 4.5 | 106 ± 4.6 | –
COc1ccccc1-c1c[nH]c2ncc(-c3cccc(C(N)=O)c3)cc12 [Compound 25] | 62 ± 4.6 | 136 ± 5.3 | –
NC(=O)c1cccc(-c2cnc3[nH]cc(-c4cccc(F)c4)c3c2)c1 [Compound 29] | 23.1 ± 2.5 | – | –
NC(=O)c1cccc(-c2cnc3[nH]cc(-c4cccs4)c3c2)c1 [Compound 14] | 52.5 ± 2.8 | 186 ± 4.6 | –
NC(=O)c1cccc(-c2cnc3[nH]cc(-c4ccccc4O)c3c2)c1 [Compound 22] | 36.2 ± 2.7 | – | –
NC(=O)c1cccc(-c2cnc3[nH]cc(-c4ccccc4Cl)c3c2)c1 [Compound 21] | 23.6 ± 2.6 | – | –
CCc1ccccc1-c1c[nH]c2ncc(-c3cccc(C(N)=O)c3)cc12 [Compound 24] | 24.6 ± 2.4 | – | –
Cn1ccc2cc(-c3cccc(C(N)=O)c3)ccc21 [Compound 8] | 51.7 ± 5.4 | 255 ± 4.5 | –
NC(=O)c1cccc(-c2cnc3[nH]ncc3c2)c1 [Compound 2] | 35.2 ± 2.8 | – | –
NC(=O)c1cccc(-c2cnc3[nH]cc(-c4ccccc4OC(F)(F)F)c3c2)c1 [Compound 28] | 16.9 ± 2.2 | – | –
CC(C)(C)NCC(O)COc1cccc2c1CC(O)C(O)C2 (centres unmarked) [Nadolol] | – | – | recovery [1, 2]: 111%; Papp A→B [1]: 0.2 ×10⁻⁶ cm/s; Papp B→A [1]: 0.5 ×10⁻⁶ cm/s
NC(=O)c1cccc(-c2cnc3[nH]cc(-c4ccc(Cl)cc4)c3c2)c1 [Compound 36] | 61.6 ± 5.4 | 128 ± 3.8 | –
NC(=O)c1cccc(-c2cnc3[nH]cc(-c4cn[nH]c4)c3c2)c1 [Compound 15] | 49.1 ± 3.4 | – | –
CC(C)NCC(O)COc1cccc2ccccc12 (centres unmarked) [Propranolol] | – | – | recovery [1, 3]: 99.9%; recovery [1, 2]: 107%; Papp A→B [1]: 40.2 ×10⁻⁶ cm/s; Papp B→A [1]: 34.1 ×10⁻⁶ cm/s
COc1ccc(-c2c[nH]c3ncc(-c4cccc(C(N)=O)c4)cc23)cc1 [Compound 38] | 26.4 ± 1.6 | – | –
NC(=O)c1cccc(-c2cnc3[nH]cc(-c4ccsc4)c3c2)c1 [Compound 13] | 70.4 ± 3.6 | 65.7 ± 3.1 | IC50 (HCT-116): 2480 ± 990 nM; IC50 (MGC-803): 9190 ± 2420 nM; IC50 (HT-29): 9310 ± 1670 nM; IC50 (SW480): 5450 ± 2820 nM; IC50 (A549): 21800 ± 1660 nM; IC50 (A375): 950 ± 520 nM; IC50 (GES-1): 24200 ± 3620 nM; IC50 (MDA-MB-231): 31500 ± 1270 nM; IC50 (MV4-11): 360 ± 120 nM; IC50 (molm-13): 160 ± 20 nM
NC(=O)c1cccc(-c2cnc3[nH]cc(-c4ccc(OC(F)(F)F)cc4)c3c2)c1 [Compound 40] | 46.3 ± 1.9 | – | –
NC(=O)c1cccc(-c2cnc3[nH]cc(-c4cccc(C(F)(F)F)c4)c3c2)c1 [Compound 33] | 34.6 ± 4.1 | – | –
NC(=O)c1cccc(-c2cnc3[nH]cc(-c4cnn(C(F)F)c4)c3c2)c1 [Compound 18] | 32.5 ± 4.9 | – | –
NC(=O)c1cccc(-c2cnc3[nH]cc(-c4ccccc4F)c3c2)c1 [Compound 20] | 58.7 ± 3.3 | 161 ± 3.1 | –

SMILES | inhibition at 0.2 µM (CDK8) [%] | IC50 (CDK8) [nM] | further results
NC(=O)c1cccc(-c2ccc3[nH]ccc3c2)c1 [Compound 7] | 59.1 ± 2.1 | 212 ± 6.1 | –
NC(=O)c1cccc(-c2cnc3[nH]cc(-c4cccc(O)c4)c3c2)c1 [Compound 31] | 30.5 ± 2.3 | – | –
NC(=O)c1cccc(-c2cncc3ccccc23)c1 [Compound 5] | 55.7 ± 3.8 | 186 ± 4.5 | –
NC(=O)c1cccc(-c2ccc3sccc3c2)c1 [Compound 10] | 38.3 ± 2.2 | – | –
NC(=O)c1cccc(-c2cnc3[nH]cc(-c4ccc(F)cc4)c3c2)c1 [Compound 35] | 55.8 ± 4.6 | – | –
Cc1ccccc1-c1c[nH]c2ncc(-c3cccc(C(N)=O)c3)cc12 [Compound 23] | 51.6 ± 2.6 | 193 ± 6.6 | –
NC(=O)c1cccc(-c2cnc3[nH]cc(-c4cccc(OC(F)(F)F)c4)c3c2)c1 [Compound 34] | 23.4 ± 3.3 | – | –
COc1cccc(-c2c[nH]c3ncc(-c4cccc(C(N)=O)c4)cc23)c1 [Compound 32] | 44 ± 3.8 | – | –
NC(=O)c1cccc(-c2cnc3[nH]cc(-c4cccc(Cl)c4)c3c2)c1 [Compound 30] | 65.5 ± 3.8 | 86.7 ± 6.5 | IC50 (HCT-116): > 50000 nM; IC50 (MGC-803): > 50000 nM; IC50 (HT-29): > 50000 nM; IC50 (SW480): > 50000 nM; IC50 (A549): > 50000 nM; IC50 (A375): > 50000 nM; IC50 (GES-1): > 100000 nM; IC50 (MDA-MB-231): > 50000 nM; IC50 (MV4-11): > 50000 nM; IC50 (molm-13): > 50000 nM
NC(=O)c1cccc(-c2ccc(N)nc2)c1 [Compound 3] | 50.8 ± 2.3 | 177 ± 7.2 | –
NC(=O)c1cccc(-c2cnc3[nH]cc(-c4ccc(C(F)(F)F)cc4)c3c2)c1 [Compound 39] | 22.3 ± 3.7 | – | –
NC(=O)c1cccc(-c2cnc3[nH]cc(-c4ccc(O)cc4)c3c2)c1 [Compound 37] | 28.3 ± 3.1 | – | –
NC(=O)c1cccc(-c2cnc(N)c3ccccc23)c1 [Compound 6] | 75.8 ± 5.9 | 64.5 ± 3.8 | –
NC(=O)c1cccc(-c2cnc3[nH]cc(-c4ccccc4)c3c2)c1 [Compound 19] | 57.4 ± 1.4 | 158 ± 4.3 | –
Cn1cc(-c2c[nH]c3ncc(-c4cccc(C(N)=O)c4)cc23)cn1 [Compound 16] | 29.5 ± 2.3 | – | –
CC(C)c1ccccc1-c1c[nH]c2ncc(-c3cccc(C(N)=O)c3)cc12 [Compound 26] | 33.1 ± 4.2 | – | –
C[C@H]1O[C@@H](O[C@H]2[C@@H](O)C[C@H](O[C@H]3[C@@H](O)C[C@H](O[C@H]4CC[C@@]5(C)[C@H](CC[C@@H]6[C@@H]5C[C@@H](O)[C@]5(C)[C@@H](C7=CC(=O)OC7)CC[C@]65O)C4)O[C@@H]3C)O[C@@H]2C)C[C@H](O)[C@@H]1O [Digoxin] | – | – | efflux ratio ([1]; Caco-2): 6.2; recovery [1, 3]: 92.5%; recovery [1, 2]: 99.2%; Papp A→B [1]: 0.9 ×10⁻⁶ cm/s; Papp B→A [1]: 5.6 ×10⁻⁶ cm/s
NC(=O)c1cccc(-c2cnc(N)c(Cl)c2)c1 [Compound 4] | 45.6 ± 4.2 | – | –
NC(=O)c1cccc(-c2cnc3[nH]cc(-c4ccccc4C(F)(F)F)c3c2)c1 [Compound 27] | 15.9 ± 5.2 | – | –
CCOC(C)n1cc(-c2c[nH]c3ncc(-c4cccc(C(N)=O)c4)cc23)cn1 (centres unmarked) [Compound 17] | 46.5 ± 1.8 | – | –
NC(=O)c1cccc(-c2ccc3occc3c2)c1 [Compound 9] | 60.4 ± 4.3 | 190 ± 4.9 | –
